Drawing on patent US8546404B2, “Compounds that are ERK inhibitors” (Merck Sharp & Dohme, priority 2005, dated 2013), this text covers AUC and IC50 for 4 molecules.

What is called AUC is the area under the concentration-time curve, a measure of exposure. Usually IC50 stands for the concentration at which inhibition is half-maximal.

Molecules are shown by their SMILES.

Series [1] can be described thus: Cassette Accelerating Rapid Rat Screen (CARRS), AUC during the first 6 hours. The class given is in vivo, Male Sprague-Dawley rats. Conditions: male, Sprague-Dawley, plasma, 10 mg/kg, PO, AUC during the first 6 hours (AUC6hr). The method, then: The AUC (Area Under the Concentration-Time Curve During the First 6 Hours (AUC6hr) in Table 30 Below was Determined Using the Protocol of Cassette Accelerating Rapid Rat Screen (CARRS)
Animal Dosing and Sample Collection
Male Sprague-Dawley rats (Charles River, Co.) were pre-cannulated (femoral artery) in order to facilitate precise blood sampling times, and to reduce the stress on the animals caused by serial bleedings. Following an overnight fast, two rats were dosed orally with one compound at a dose of 10 mg/kg in a 5-mL/kg dose volume. Blood was collected into heparin-containing tubes serially from each animal at 0.5, 1, 2, 3, 4 and 6 h post-dosing and centrifuged to generate plasma. Approximately 100 μL of plasma were collected at the individual time points. The plasma samples were stored at −20° C. until analysis.
Plasma Sample and Standard Curve Preparation
A set of 12 rat plasma samples was generated for each NCE (i.e. 6 timepoints and n=2 rats). These 12 samples were pooled across the two rats at each timepoint to provide 6 pooled samples (one sample per time point) for each NCE. The pooled samples were assayed as cassettes of six (36 samples total) to provide data on the six compounds. The 50-μL aliquots of the 36 plasma samples were placed into individual wells of a 96-well plate. An additional compound (often a structural analog of the test compounds) was selected as the internal standard. A mini-calibration curve was prepared (three points plus a zero) for each compound assayed. Drug-free rat plasma was measured into 1-mL aliquots and each aliquot was spiked with known concentrations of the compounds to generate standards of the desired concentrations. The concentrations of the standards were chosen to bracket the expected concentration of the pooled samples based on historical data from previous studies on other compounds. For this work, the standards were set to contain concentrations of 25, 250 and 2500 ng NCE/mL plasma. The plasma standards were precipitated in duplicate along with the samples. Protein precipitation occurred after addition of 150 μL of acetonitrile containing the internal standard at a concentration of 1 ng/mL into each sample well using the Tomtec Quadra 96 system. The precipitated samples and standards were vortexed and centrifuged in the 96-well plate. Approximately 50-100 μL of the supernatant were removed and placed into a fresh 96-well plate using the Tomtec Quadra 96 system. A volume of 5-10 μL of the supernatant was used for analysis by HPLC-MS/MS. The mini-standard curve was run in duplicate, once before and once after the samples. Thus, a total of 14 study samples plus standards were analyzed per compound. In addition, solvent blanks were injected before and after each set of 14 and after the highest calibration standard for each compound; therefore, a total of 103 injections were made into each HPLC system for each set of six compounds. Multiple solvent blank injections could be made from a single well. Twelve solvent blank wells were designated in each 96-well plate. Thus, one batch (cassette) of six NCEs was prepared and assayed using one 96-well plate format.
All the compounds were analyzed using selected reaction monitoring (SRM) methods with LC/MS/MS instruments. Once the method development had been completed, the assay was quickly set up using a standard injection sequence template for the CARRS assay.

The target in series [2] is fully phosphorylated, active Mouse ERK2 protein (Mus musculus (Mouse), UniProt P63085). The experiment in a line: Active ERK2 Assay (IMAP format). The settings on record: read-out: AERK2 IC50. The class given is biochemical. As for the experimental part: Activated ERK2 activity was also determined in the IMAP assay format using the procedure outlined above. […] Reactions proceeded for 30 minutes before termination by addition of 60 μl IMAP detection beads in binding buffer. Plates were read as above after 30 minute binding equilibration.
Chain of fully phosphorylated, active Mouse ERK2 protein (P63085 whole entry): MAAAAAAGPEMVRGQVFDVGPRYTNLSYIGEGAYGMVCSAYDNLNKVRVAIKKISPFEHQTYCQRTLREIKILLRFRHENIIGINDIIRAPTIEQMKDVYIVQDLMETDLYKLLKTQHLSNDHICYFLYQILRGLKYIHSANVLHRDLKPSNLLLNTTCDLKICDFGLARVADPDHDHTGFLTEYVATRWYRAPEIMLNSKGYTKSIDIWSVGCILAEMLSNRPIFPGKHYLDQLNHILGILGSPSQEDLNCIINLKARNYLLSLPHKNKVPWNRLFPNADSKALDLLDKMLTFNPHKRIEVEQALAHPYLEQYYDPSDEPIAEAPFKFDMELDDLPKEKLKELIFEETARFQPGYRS

`CO[C@@]1(C(=O)Nc2ccc3[nH]nc(-c4ccc(F)cc4)c3c2)CCN(CC(=O)N2CCC(c3ccc(-c4ncccn4)cc3)CC2)C1` [Example 479] showed an AUC in series [1] of 2.2 µM·h. Further, the IC50 in series [2] was determined as 9.1 nM.
In the case of `CS[C@@]1(C(=O)Nc2ccc3[nH]nc(-c4ccc(F)cc4)c3c2)CCN(CC(=O)N2CC=C(c3ccc(-c4ncccn4)cc3)CC2)C1` [Example 613], in series [1], the AUC stood at 25.9 µM·h. Further, the IC50 in series [2] is 10 nM.
As to `CCNc1nnc(-c2ccc(C3=CCN(C(=O)CN4CC[C@@](OC)(C(=O)Nc5ccc6[nH]nc(-c7ccc(F)cc7)c6c5)C4)CC3)c(F)c2)o1` [Example 622, 1-(2-{4-[4-(5-Ethylamino-[1,3,4]oxadiazol-2-yl)-2-fluoro-phenyl]-3,6-dihydro-2H-pyridin-1-yl}-2-oxo-ethyl)-3-methoxy-pyrrolidine-3-carboxylic acid [3-(4-fluoro-phenyl)-1 indazol-5-yl]-amide], the AUC in series [1] was determined as 1.13 µM·h. Further, the IC50 in series [2] amounted to 5 nM.
For `CO[C@@]1(C(=O)Nc2ccc3[nH]nc(-c4ccc(F)cc4)c3c2)CCN(CC(=O)N2CC=C(c3ccc(-c4ncccn4)cc3F)CC2)C1` [Example 825] the same measures were 1.1 µM·h and 20 nM.
